Assay results from a melting point compilation (Tetko et al.; mined from patent text by program, amines drawn as free bases though some values may be those of a salt).

melting point [°C]	Compound
123 to 125	CN(C[C@@H](CCO)c1ccc(Cl)c(Cl)c1)C(=O)c1ccccc1
100	Cc1cc(C(C)C(=O)O)ccc1C(=O)c1cccs1 (stereo not given)
195 to 196	Cc1nn(-c2ccc(C(F)(F)F)cn2)cc1COc1ccc(CCC(=O)O)cc1
104 to 106	O=c1[nH]c2ccccc2n1CCN1CCC(C(c2ccc(F)cc2)c2ccc(F)cc2)CC1
134 to 136	CC(C)(C)OC(=O)[C@H](CCC(=O)N1CCC2(CCN(Cc3ccccc3)CC2)CC1)NS(=O)(=O)c1ccccc1
163 to 165	CCN(CC)c1ccc(C(=O)C#Cc2ccnc3ccccc23)cc1
125 to 127	CCCCC(=O)c1c(CSc2nccn2C)nc2cc(OC)c(OC)cc2c1-c1ccc(OC)c(OC)c1
201 to 202	COc1cc(Nc2nccc(-c3sc(NCCc4ccccc4)nc3C)n2)cc(OC)c1
180 to 181	Cc1ccc(Cl)c(Nc2ccccc2-c2nnco2)c1Cl
224 to 230	Nc1nc2nc(NCCCN3CCOCC3)ncc2cc1-c1c(Cl)cccc1Cl
170 to 173	CCOP(=O)(CC(=O)Nc1c(C(C)C)cccc1C(C)C)c1ccccc1 (stereo not given)
149 to 151	COc1nc(C)cnc1NS(=O)(=O)c1cccnc1-c1ccc(OC(C)C(=O)O)cc1 (stereo not given)
99.6 to 100	CCOC(=O)c1cc(-c2ccccc2)n(-c2cccc(Cl)c2)c1C
208 to 209	Cn1c2cc(Cl)ccc2c2c(C(=O)O)nc(-c3ccccc3)nc21
131	O=C(Nc1ccccc1)N(c1ccccc1)c1ccccc1
168 to 172	CC(CO)N=C(c1ccccc1)c1cc(Cl)ccc1NC(=O)CN (stereo not given)
279 to 280	Cc1ccc(-c2ccccc2)c(O)c1-c1ccccc1
120 to 125	COC(=O)c1cc(C2=CCCO2)c(C(F)(F)F)cc1NC(C)=O
250 to 253	N#Cc1cc(C2=Nc3ccc(-c4ccc(F)cc4F)cc3NC(=O)C2)ccn1
238	CS(=O)(=O)c1cccc(NC(=O)c2cnn3c(C(F)F)cc(-c4ccc(C(F)(F)F)c(F)c4)nc23)c1

melting point [°C]	Compound
142	Clc1ccc2nc(NCc3ccco3)nc(-c3ccccc3)c2c1
333	Oc1cc(O)nc(-c2ccc(Cl)cc2)n1
> 300	O=C(O)c1ccc(=O)n(CCNC(=O)c2ccncc2)c1
160 to 161	CCCc1cnc2c(NC(=O)c3c(Cl)cccc3Cl)cccc2c1-n1ccnc1
100	COc1cc(CCc2ccccc2)c(OC)c2c1C(=O)c1ccccc1C2=O
172 to 174	COc1ccc(-c2ccc3c(Br)c(OC)ccc3c2)cc1
210 to 212	COCc1cnc2c(NC(=O)c3c(Cl)cccc3Cl)cccc2c1N1CCNC1=O
58 to 60	COc1cccc(CO)c1OCc1ccccc1
111 to 112	COCCOC(=O)c1cnn2c(-c3cccc(C(F)(F)F)c3)ccnc12
204 to 208	FC(F)(F)c1ccccc1OCCCc1cn(C(c2ccccc2)(c2ccccc2)c2ccccc2)cn1
95	Cn1ccc2ccc(NC(=O)/C=C/c3ccc(C(C)(C)C)cc3)cc21
129 to 130	COc1cc(C(=O)Cc2ccccc2)cc([N+](=O)[O-])c1O
119 to 120	COc1c(C(=O)Nc2ccc(-n3nc(C(F)(F)F)cc3C(F)(F)F)cc2)csc1Cl
132 to 135	CC(=NO)c1ccc2c(c1)oc1ccccc12
201 to 202	O=C1COc2ccc(C3=Cc4ccc(NCCO)cc4SC3c3ccccc3)cc2N1 (stereo not given)
174 to 175	O=C(Nc1ccc(-n2nc(C(F)(F)F)cc2C(F)(F)F)cc1)C1=CCCC1
82 to 90	CS(=O)(=O)Nc1cc([C@@H](O)CNC2CCN(c3ccc(NC(=O)CCC4CCCC4)cc3)CC2)ccc1O
230	CCOC(=O)C1=CC(C(=O)c2cc(Cl)ccc2O)=CN2CCc3c([nH]c4ccc(OC)cc34)C12C(=O)OCC (stereo not given)
109 to 110	COC(=O)C(=O)c1ccc(OCc2ccc3ccccc3n2)cc1

The next lines start with the compound.

Compound	melting point [°C]
c1ccc(Cc2cnc(N3CCN(c4ncnc5ccccc45)CC3)nc2)cc1	> 250
O=CN1CCN(C(=O)CCBr)CC1	96 to 98
OC(c1ccccc1)C1CCN1C(c1ccccc1)c1ccccc1 (stereo not given)	87.5 to 88.5
CCOC(=O)c1noc(C(Cc2ccccc2)NC(=O)OC(C)(C)C)n1 (stereo not given)	72 to 76
Cc1ccc(C2c3c(C)c(Br)c(C)c(C4OCCO4)c3OC2(C)C)cc1 (stereo not given)	169 to 172
CCN(CC)CCNC(=O)N(CCS(=O)(=O)c1ccc(OC)cc1)C(C)C	39.5 to 42
CCOC(=O)c1c(Cl)c(CC)c(C)[nH]c1=O	167
O=C1CCCC(c2ccc(O)c(O)c2)N1c1ccc(Cl)cc1 (stereo not given)	205 to 207
O=C(O)CC(CO)C(=O)c1ccc(Cl)c([N+](=O)[O-])c1 (stereo not given)	210 to 213
Cc1ccc(O)c(I)c1	34.5 to 35.5
COc1cc2cc(Br)c(C)cc2c(C(C)C)c1OC	62 to 63
CN(C)Cc1cc(C(=O)c2cccs2)cc(C(C)(C)C)c1O	132 to 134
CCOC(=O)C=Cc1c(C)cc(OC)c(C)c1C	42 to 44
CCCCCCCCCCCCSCCOc1ccc(CCC(=O)OC)cc1	48
NC(C(=O)O)c1ccc(CC(=O)O)cc1 (stereo not given)	250
COC(=O)c1sc(C(F)(F)F)cc1OC	78 to 79
Cc1c(O)c(Cl)cc(Cl)c1C(=O)O	135
COc1ccc2c(c1)C(NC(=O)C(F)(F)F)CC2 (stereo not given)	128 to 136

Compound	melting point [°C]
CCn1ccc2c(c1=O)CN=C(N1CCN(Cc3ccccc3)CC1)N2	200 to 203
CCCCCCNC(=O)Oc1cccc(NC(=O)CC(C)=O)c1	125
CCC(=O)c1cc2c(c(Cl)c1O)OC(C(=O)O)C2 (stereo not given)	227 to 229
c1n[nH]c2c1Cc1[nH]ncc1-2	180
OC(=S)Cc1cc(Cl)ccc1Cl	118
N#CC(=NO)C1CCCOC1 (stereo not given)	46 to 50
N#Cc1ncn(-c2cccc(Cl)c2F)c1I	182 to 183
CC(C)(C)OC(=O)NCCCC(COC(=O)Oc1ccc([N+](=O)[O-])cc1)NC(=O)OCC1c2ccccc2-c2ccccc21 (stereo not given)	140 to 142
c1cc2[nH]ncc2nc1N1CCCCC1	217 to 218
CC(C)(C)OC(=O)Nc1ccc(Cl)c(O)c1	103 to 106
O=Cc1cc(O)c(OCc2ccccc2)cc1O	147 to 148
CNC(=S)SCCC(=O)O	86 to 87
N#Cc1cc(N)ccc1N1CCC(N2CCSCC2)CC1	138
CCOCc1nc2c(N)nc(C)c(C)c2n1NC(C)C	110 to 120
N#CCCN1CCN(Cc2ccc3c(c2)-c2[nH]nc(-c4ccsc4)c2C3)CC1	156 to 157
O=c1cc(-c2nc[nH]n2)oc2ccccc12	210
O=C(O)CCC(=O)c1cccc(Cl)c1	105 to 107
CCCOCC1(C)CCCOc2cc(C#Cc3ccc(C(=O)O)cc3)ccc21 (stereo not given)	148 to 149
